Some test systems named below: NCI-H522 lung; CAKI-1 renal; HT29 colon; BT-549 breast; COLO 205 colon; MOLT-4 leukemia; SF-539 CNS.
Holding throughout (assay): growth of human tumour cells (NCI), 48 h

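Interpolation was linear, between the two tested concentrations surrounding the appropriate level; five concentrations were tested over 48 hours in 96-well plates. TGI marks complete inhibition of growth.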 A value given as a limit tells only on which side of the number the result lay.

Results on 15 compounds are retold here after PubChem BioAssay (NCI).

For `CC1(C)CC2(C)CC1CC2(O)c1ccccc1` (stereo not given), the TGI with NCI-H522 lung, in the test with CAKI-1 renal, in the test on HT29 colon, in the test with BT-549 breast, in the test on COLO 205 colon and with MOLT-4 leukemia was > 100 µM each time. The TGI with SF-539 CNS is > 100 µM.

Take `CN(C)c1ccc(/C=C/C(=O)N[C@@H]2C(=O)N3[C@@H]2SC(C)(C)[C@@H]3C(=O)O)cc1`: the TGI with NCI-H522 lung, with CAKI-1 renal, in the test with HT29 colon, in the test on BT-549 breast, with COLO 205 colon and in the test with MOLT-4 leukemia was > 100 µM each time. Besides, the TGI with SF-539 CNS was > 100 µM.

Regarding `CN(C(=O)c1ccc2c(c1)sc1c(=O)n(C)c3ccccc3c12)c1ccccc1`, the TGI in the test with NCI-H522 lung, in the test with CAKI-1 renal, in the test with HT29 colon, in the test with BT-549 breast, with COLO 205 colon and with MOLT-4 leukemia was > 100 µM throughout. Further, the TGI in the test with SF-539 CNS is > 100 µM.

`COC(=O)c1c(CC(Cc2ccc3c(c2)CCCC3)C(=O)OC)ccc2c1CCCC2` (stereo not given): the TGI in the test on NCI-H522 lung, in the test on CAKI-1 renal, in the test with HT29 colon, in the test with BT-549 breast, with COLO 205 colon and in the test with MOLT-4 leukemia was > 100 µM in each case. Moreover, the TGI in the test on SF-539 CNS is > 100 µM.

Consider `Cc1ccnc2nc(N)ccc12`, for which the TGI in the test on NCI-H522 lung, with CAKI-1 renal, with HT29 colon, in the test with BT-549 breast, in the test with COLO 205 colon and with MOLT-4 leukemia was > 100 µM each time. The TGI in the test with SF-539 CNS was > 100 µM.

As for `Cc1nc2n(c1/C=C1/C(=O)Nc3ccccc31)CCS2`, the TGI with NCI-H522 lung was > 100 µM; in the test with CAKI-1 renal, > 100 µM; in the test with HT29 colon, > 100 µM; with BT-549 breast, > 100 µM; in the test with COLO 205 colon it was 47.6 µM; in the test with MOLT-4 leukemia, > 100 µM. Moreover, the TGI with SF-539 CNS is > 100 µM.

On to `COC(=O)C(=O)C(C(=O)C(=O)Nc1cccc([N+](=O)[O-])c1)c1nc2ccc(Cl)cc2[nH]c1=O` (stereo not given), for which the TGI in the test with NCI-H522 lung, in the test with CAKI-1 renal, in the test on HT29 colon, in the test on BT-549 breast, in the test on COLO 205 colon and with MOLT-4 leukemia was > 100 µM each time. The TGI in the test with SF-539 CNS was > 100 µM.

`CCOC(=O)NNC(=O)NCc1ccccc1CNC(=O)NNC(=O)OCC`: the TGI in the test on NCI-H522 lung, in the test on CAKI-1 renal, in the test with HT29 colon, in the test on BT-549 breast, with COLO 205 colon and in the test with MOLT-4 leukemia was > 100 µM each time. Besides, in the test on SF-539 CNS, the TGI was > 100 µM.

For `Cn1c([C@H](C#N)C(=O)c2cc(O)ccc2[N+](=O)[O-])nc2ccccc21`, the TGI with NCI-H522 lung, in the test with CAKI-1 renal, in the test on HT29 colon, in the test on BT-549 breast, with COLO 205 colon and in the test on MOLT-4 leukemia was > 100 µM throughout. Also, the TGI in the test on SF-539 CNS is > 100 µM.

`COc1ccc(C2OCCN2C)cc1` (stereo not given): the TGI in the test with NCI-H522 lung, in the test on CAKI-1 renal, in the test with HT29 colon, in the test with BT-549 breast, in the test on COLO 205 colon and with MOLT-4 leukemia was > 100 µM in each case. Moreover, the TGI with SF-539 CNS was > 100 µM.

Turning to `Cc1cccc2nc3c(=O)[nH]c(=O)nc-3n(C)c12`, the TGI in the test with NCI-H522 lung is 87.4 µM; in the test on CAKI-1 renal, > 100 µM; in the test on HT29 colon, > 100 µM; in the test on BT-549 breast, > 100 µM; with COLO 205 colon, > 100 µM; in the test on MOLT-4 leukemia it was > 100 µM. In addition, the TGI in the test on SF-539 CNS is > 100 µM.

As to `Nc1nccc(NCC2(CO)CCC2)n1`, the TGI in the test on NCI-H522 lung, in the test with CAKI-1 renal, in the test with HT29 colon, in the test with BT-549 breast, with COLO 205 colon and in the test on MOLT-4 leukemia was > 100 µM each time. Moreover, the TGI with SF-539 CNS is > 100 µM.

In the case of `O=Nn1c2ccccc2c2cc([N+](=O)[O-])ccc21`, the TGI was 29.1 µM in the test with NCI-H522 lung; 31.6 µM in the test with CAKI-1 renal; 68 µM in the test with HT29 colon; 38.3 µM in the test with BT-549 breast; > 100 µM in the test with COLO 205 colon; 70.9 µM in the test on MOLT-4 leukemia. The TGI in the test with SF-539 CNS was determined as 37.2 µM.

For the compound `Cc1ccc(S(=O)(=O)[C@@H](Cl)[C@H]2N=C(Cl)NN=C2c2ccccc2)cc1`, the TGI in the test on NCI-H522 lung was 35.9 µM; with CAKI-1 renal it was > 100 µM; in the test with HT29 colon it was > 100 µM; in the test with BT-549 breast, 59 µM; with COLO 205 colon, 75 µM; with MOLT-4 leukemia it was 83.1 µM. This compound showed a TGI in the test on SF-539 CNS of 61.1 µM.

Turning to `COCC1OC(S(=O)(=O)c2ccccc2)C(O)C(OC)C1OC` (stereo not given), the TGI with NCI-H522 lung, with CAKI-1 renal, in the test on HT29 colon, with BT-549 breast, in the test on COLO 205 colon and in the test with MOLT-4 leukemia was > 100 µM in each case. Moreover, the TGI with SF-539 CNS is > 100 µM.
